Read-outs that look alike come from different tables or passages of the source.

Data set [1] relates to phagocytosis of anti-D-opsonized Rh(D+) red cells by monocytes. Briefly: monocyte monolayer assay (MMA), in vitro phagocytosis assay. The data set is classed as cell-based, human. As to conditions: for IC50: 0.5-100 μM, read-out: IC50 for inhibition of phagocytosis. On the set-up: key to Phagocytic index (PI): number of phagocytosed RBCs per 100 monocytes. Here is the method:
The MMA to screen compounds for their ability to inhibit phagocytosis was performed as previously described (Purohit, M. K. et al., Bioorg. Med. Chem. Lett. 2013; 23:2324-7; and Purohit, M. K. et al., Bioorg. Med. Chem. 2014; 22:2739-52.). Briefly, Mononuclear cells (PBMCs) were layered onto chamber slides and monocytes purified by adherence after 1 hr at 37° C. with 5% CO2. Drugs were solubilized in 100% DMSO and then diluted in Roswell Park Memorial Institute (RPMI) to the final concentration of 5 μM, as previously reported (8,9). Corresponding dimethyl sulfoxide (DMSO) volumes in RPMI medium were used as a control. After one hour, indicator Rh-positive red cells opsonized with anti-RhD were added to the chamber slides and then further incubated for 2 hours before fixing and counting phagocytosed red blood cells (RBCs) using phase-contrast microscopy. As a positive control for inhibition, Intravenous immunoglobulin (IVIg) was used, known to inhibit phagocytosis due to blocking of FcγRs. The phagocytosis index (PI) was determined as the number of phagocytosed RBCs in 100 monocytes. The percent inhibition of phagocytosis was determined by comparing the PI in each treated sample to the PI in the untreated sample, which was determined by normalizing the PI concentration in each treated sample (phagocytosis of opsonized RBCs with vehicle only, representing 100 percent phagocytosis.
Concentrations included 100 μM, 50 μM, 25 μM, 10 μM, 5 μM, 2.5 μM, 1 μM, and 0.5 μM.
The 80 selected pyrazole core compounds were screened using a concentration of 5 μM in the in vitro phagocytosis assay, referred to as the monocyte monolayer assay (MMA). Compounds were compared to a standard intravenous immunoglobulin (IVIg) at a concentration of 1 mg/mL.

For data set [2], the system named is PBMC, HEPG2, and HEK-293. The experiment in a line: LDH assay at higher concentrations (up to 250 μM). Format: cell-based. The note with it: PBMCs, HEPG2, HEK293. The method, then:
(§1) Cell lines (HepG2, liver-derived, HB-8065™; HEK293, kidney-derived cell line, CRL-1573™) were purchased from the ATCC. Both cell lines were cultured in Eagle's Minimum Essential Medium supplemented with 10% fetal calf serum.
(§2) To further determine the potential for toxicity of compounds KB-151 and KB-208, additional toxicity studies were done using higher concentrations, up to 250 μM of each compound, using LDH and MTT (FIGS. 4A-4D), and an apoptosis assay (Annexin V/PI) (FIGS. 5A-5C).

Data set [3] relates to PBMC, HEPG2, and HEK-293. The experiment in a line: MTT assay at higher concentrations (up to 250 μM). The data set is classed as cell-based, human. As to conditions: PBMCs, HEPG2, HEK293. Here is the method: as §1, §2
Data set [4] relates to PBMC, HEPG2, and HEK-293. Briefly: apoptosis assay (Annexin V/PI). Format: cell-based, human. The note with it: 250 μM, 1 hour; PBMCs, HEPG2, HEK293. Here is the method: PBMC, HEPG2, and HEK-293 cells were treated for 1 hour with the compound KB-151 or the compound KB-208 at a 250 μM concentration. 100 μM thimerosal was used as a positive control for viability (diluted in RPMI). Staining with Annexin V and PI was performed according to the manufacturer's procedure for the Annexin-V-FLUOS Staining Kit (Sigma) and samples were run through an SP6800 Spectral Cytometer.
as §2

The subject of a further data set is ITP mice model. The experiment in a line: anti-CD41 antibody ITP mouse model (platelet count). Format: in vivo. As to conditions: Balb/c, day 4 after two treatment doses on days 2 and 3, 100 μM s.c. twice a day, vs CD-41 group (*P≤0.05). Here is the method:
An in vivo phagocytosis inhibition assay was performed with KB-151 in a mouse model, Balb/c animals (FIG. 6A and FIG. 6B). A dose of 100 μM of KB-151 was injected to 20.5 g mice at 500 μL based on the following calculations:
A dose-escalation anti-CD41 antibody ITP mouse model was used.
(§3) The efficacy of KB-151 and KB-208 at diminishing the platelet level was assessed in three ITP mice models: C57BL/6 (FIG. 7), Balb/c (FIGS. 8A-8B), and CD1 (FIG. 9). […] The toxicity was also assessed using the Balb/c model.

The nature of data set [5]: 60-day toxicity in Balb/c mice (blood biochemistry, histopathology). As to conditions: after 60 days of treatment. The data set is classed as in vivo. Here is the method: as §3
In data set [6] the test system is attachment of antibody-opsonized RBCs to FcγRs on monocytes. Briefly: room temperature RBC rosette assay (binding of anti-D opsonized RBCs to monocytes). As to conditions: 100 μM. The data set is classed as cell-based. From the text:
Fluorescent dye-labelled RBCs opsonized with anti-D were used to study the mechanism of phagocytosis inhibition using a room temperature assay to look for RBC rosettes (attachment of antibody-opsonized RBCs' to FcγRs) in the presence of monocytes. IVIg was used as the positive control and no treatment as the negative control. In the negative control, monocytes bound to the RBC and initiated phagocytosis (FIGS. 11A and 11E).

For data set [7], the system named is FcγRI (CD64), FcγRII (CD32), and FcγRIII (CD16). The experiment in a line: FcγR expression on monocytes with monoclonal antibodies. As to conditions: monocytes untreated or treated. The data set is classed as cell-based. Here is the method: Due to observing similar results as IVIG, the binding of KB-208 and KB-151 to FcγR was evaluated to determine the attachment between KB-208 or KB-151 and FcγR. Three monoclonal antibodies each specific for FcγRI (CD64), FcγRII (CD32), and FcγRIII (CD16) were used to test the resulting expression of FcγRI, FcγRII and FcγRIII.

Another data set concerns HSP27. The experiment in a line: signal transduction study, phosphorylated HSP27 level. The data set is classed as cell-based. As to conditions: no RBC, un-opsonized RBC. From the text: (§4) The mechanism of action of KB-208 and KB-151 was investigated further to evaluate the effects on signal transduction. Many kinases were studied including Akt1/2/3 (T308), Akt1/2/3 (S473), CREB, EGF R1 eNOS, ERK1/2, Chk-2, c-Jun, Fgr, GSK-3a/p, GSK-3p, HSP27, p53 (S15), p53 (S46), p53 (S392), JNK 1/2/3, Lck, Lyn, MSK1/2, p70 S6 kinase (T389), p70 S6 kinase (T421/S424), PRAS40, p38a, PDGF RP, PLC-γ1, Src, PYK2, RSK1/2, RSK1/2/3, STAT2, STAT5a/b, WNK1, Yes, STAT1, STAT3 (Y705), STAT3 (S727), β-catenin, STAT6, and HSP60. […] It was then confirmed that KB-208 and KB-151 activate PP2A (in other words they increase its phosphatase activity) (FIG. 14). PP2A is a serine phosphatase that dephosphorylates HSP27. Deregulation of HSP27 also occurs in diseases other than immune cytopenias for example prostate cancer, colorectal cancer, and breast cancer.

A further data set relates to PP2A. The experiment in a line: PP2A phosphatase activity. Format: biochemical.
Excerpt: as §4

As a reminder, the IC50 is the midpoint of a concentration-inhibition curve. As a reminder, the inhibition is the percentage by which the read-out fell short of the control. As usually defined, the EC50 is the concentration at which the effect is half-maximal. `CCOC(=O)c1nn(-c2ccccc2)c(C#N)c1NC(=O)c1nn(CC)cc1Br` [KB-151]: the “Phagocytic index (PI)” value in [1] (5 μM, PI = (# of phagocytic red blood cells)/(300 monocytes) * 100) is 17. For the same compound, the 50% inhibitory concentration (IC50) came out at 2.71 ± 0.786 µM in data set [1] (Homo sapiens, Monocyte, dose-inhibitory response) and 3 µM in data set [1] (dose-inhibitory response). Besides, the inhibition at 5 µM in [1] (Homo sapiens, Monocyte, 5 μM compound, screening of the 80 compounds, read-out: Average inhibition (% ± standard deviation)) stood at 80 ± 3.68%; in [1] (Homo sapiens, Monocyte, 5 μM, anti-D-opsonized Rh(D+) red cells, read-out: Inhibition percentage) it was 80%. Moreover, a half-maximal effect in [1] (Homo sapiens, Monocyte, dose-inhibitory response, unit inferred) (EC50) was put at 8 ± 4 µM. Further, the “effect on IVIg dose-response curve (cooperation/synergy with IVIg)” value in data set [1] (compound added at its IC50 concentration to each IVIg concentration) is given as “no effect”. In the data set with PBMC, HEPG2, and HEK-293 [2], the “toxicity by LDH” value was “low to no toxicity”. The “toxicity by MTT” value in the data set with PBMC, HEPG2, and HEK-293 [3] was “low to no toxicity”. Besides, the “toxicity by apoptosis assay (Annexin V/PI)” value with PBMC, HEPG2, and HEK-293 [4] is listed as “low to no toxicity”. For the same compound, the “platelet (PLT) count” value in the data set on ITP mice model is “significant increase”. In addition, the “histopathology of liver, heart, spleen, lymph nodes, and kidney” value in data set [5] is recorded as “showed abnormalities nor any toxicity”. Besides, the “toxicity (blood biochemistry)” value in [5] is on record as “Minimal toxicity”. The “binding of monocytes to anti-D opsonized RBCs and phagocytosis” value in data set [6] was “inhibit the binding and inhibit phagocytosis similarly to IVIg”. In data set [7], the “binding to Fcγ receptors (FcγRI, FcγRII, FcγRIII expression on monocytes)” value is listed as “independent of binding the three tested Fcγ receptors”. For the same compound, the “effect on HSP27 phosphorylation” value in the data set with HSP27 is “dephosphorylate HSP27”. In addition, in the data set with PP2A, the PP2A phosphatase activity result is given as “activate PP2A”.

Values taken from patent US20250382280A1, “PYRAZOLE DERIVATIVES FOR THE INHIBITION OF PHAGOCYTOSIS” (Canadian Blood Services, priority 2022, published 2025).
